Experiment: gradient 5% acetonitrile 3 min, to 50% in 2 min, to 85% in 15 min, held 3 min, 100 µL/min
Settings: column: Zorbax Extend-C18 2.1 x 50 mm; eluents: water / acetonitrile, 0.1% formic acid
Method in brief: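 Retention times come from adduct peaks that were picked computationally and then checked by hand. The standards, pure and pooled in mixtures of ~100 molecules, were run on a Zorbax Extend-C18 column (2.1 × 50 mm, 1.8 μm) at 100 μL/min with water and acetonitrile, each with 0.1% formic acid. Detection was by quadrupole time-of-flight mass spectrometry in positive and negative ionization mode, with a dead volume of 40 μL and a dwell volume of 900 μL.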

SMILES	RP-LC retention time [s]
COc1ccc(-c2noc(-c3nc(C)no3)n2)cc1OC	888
Cn1c(CCNC(=O)c2ccccc2F)nc2cccnc21	591
CCOc1ccc(-c2ccc(=O)n(Cc3nc(-c4cccc(OCC)c4)no3)n2)cc1	1150
CCc1onc(C)c1C1CCCN1C(=O)Nc1cccc(C)c1 (stereo not given)	842
Cc1cc(N2CCN(C)CC2)nc2ccc(NC(=O)Nc3ccccc3Br)cc12	609
CCN(CC)CCNC(=O)CN1CC(C)Sc2ccccc21 (stereo not given)	656
Cc1cccc(N(C)C(=O)Cn2nc3nc(N4CCCC(C)C4)ccn3c2=O)c1 (stereo not given)	808
CCCNC(=O)NC1CCN(C2=NS(=O)(=O)C(c3ccc(CC)cc3)=C2C)CC1	787
O=C(O)c1cn2ccnc(-c3ccc(F)cc3)c2n1	688
O=C(CSc1ncc(-c2cccc(Cl)c2)o1)Nc1ccccc1C(F)(F)F	1070
CCN1C(=O)c2cccnc2Sc2cc(NC(=O)c3cccc(C(F)(F)F)c3)ccc21	957
CCCn1cc(S(=O)(=O)Nc2ccc(F)c(F)c2)c2cccnc21	898
CC1CCCN(C(=O)Cn2nc(-c3nc(-c4ccc5c(c4)OCO5)no3)ccc2=O)C1 (stereo not given)	765
Cc1ccc(-c2cc3c(=O)n(Cc4noc(CN5CCSCC5)n4)ccn3n2)c(C)c1	962
Cn1cc(-c2nc(C(=O)NC3CCCCCC3)cs2)c2cccnc21	1040
COc1cccc(-n2c(N3CCCC(C(=O)NCc4ccccc4)C3)nc3ccsc3c2=O)c1 (stereo not given)	859
COc1ccc(OC)c(CNC(=O)C2(CCO)CCN(c3ncccn3)C2)c1 (stereo not given)	618
O=C(NC1CCCN(c2cc(-c3ccccc3)[nH]n2)C1)c1ccc2c(c1)OCO2 (stereo not given)	760
COc1ccc(-c2cc(C(=O)N3CCN(S(=O)(=O)c4ccc(F)c(C)c4)CC3)[nH]n2)cc1	910
O=C(c1ccco1)N1CCCN(C2CCN(Cc3ccc(F)cc3)C2=O)CC1 (stereo not given)	565
Cc1ccc(C)c(NC(=O)C(=O)NCC(c2ccc3c(c2)CCCN3C)N2CCCC2)c1 (stereo not given)	746
O=C(Nc1cccc(OCc2nnc(-c3ccccc3)o2)c1)C1CCCC1	943
COc1ccc(OC)c(NC(=O)N2CCc3nc[nH]c3C2)c1	580

SMILES	RP-LC retention time [s]
CCOc1cccc(-c2noc(Cn3c(=O)n(Cc4ccc(F)cc4)c(=O)c4sccc43)n2)c1	1210
CCOC(=O)c1cnc(SCC(=O)N2CCC(C(N)=O)CC2)nc1N	602
COCc1nc(-c2ccc(OC3CNC3)cc2)no1	578
CCOc1ccc(C(=O)NCC(=O)Nc2nc3ccccc3[nH]2)cc1	648
COC(=O)c1ccc(CSc2ccc(NC(=O)c3cccs3)nn2)o1	820
CCc1cccc(NC(=O)N2CCC(n3cnnc3C3CC3)C2)c1 (stereo not given)	667
CCOC(=O)c1[nH]c(C)c(CCC(=O)NC(C)c2ccc3c(c2)OCCO3)c1C (stereo not given)	821
CCOC(=O)c1ccc(OC(=O)CCCCCN=C(N)N)cc1	750
CC(C)CC(=O)Nc1ccc(-n2cnc(C(=O)N3CCN(C4CCCCC4)CC3)c2)nc1	620
CC(=O)Nc1ccc(OCc2cc(C(=O)NC3CCCCC3)no2)cc1	781
O=C(N1CC(Oc2ccc(-c3nc(-c4ccccc4)no3)cc2)C1)C1(c2ccccc2)CC1	1310
Cc1ccc(-c2cc3c(=O)n(Cc4noc(CN5CCC(C)CC5)n4)ccn3n2)cc1C	742
Cc1cnc(C2CCC2)n1CCNS(=O)(=O)c1ccccc1	615
CCC(C(=O)N(C)CCc1noc(-c2ccc(C(=O)N3CCCC3)cc2)n1)c1ccccc1 (stereo not given)	872
CC(=O)c1cccc(NC2=NS(=O)(=O)c3ccccc32)c1	744
COc1cccc(CC(=O)N2CCc3nc[nH]c3C2)c1	572
O=C(Cn1ccc2ccccc21)N1CCC(COCc2ccccc2)CC1	1020
CCOC(=O)c1csc(NC(=O)Nc2cccc(Cl)c2)n1	867
Oc1ccccc1-n1c(-c2ccccc2)ccc1-c1ccccc1	1190
O=C(Cn1c(=O)n(-c2ccc(F)cc2)c2ncccc21)N1CCCCC1	754
O=C(CN1CCCC1=O)NCc1ccc(F)c(Cl)c1	667
Cc1nc2cc(-c3noc(CNC(=O)Cc4ccc(Cl)cc4)n3)ccc2o1	858

From the METLIN SMRT retention time set (Domingo-Almenara et al. 2019)
